Experimental data from patent publication US10040781B2, “Tank-binding kinase inhibitor compounds” (Gilead Sciences, Inc., priority 2014, dated 2018).

Tests used:
[1] = molecular target: IKKε (Homo sapiens (Human), UniProt Q14164); experiment: IKKε TR-FRET enzymatic assay; format: biochemical; conditions: TR-FRET, 2×Km ATP; geometric mean of minimum four determinations; read-out: IKKe IC50
[2] = molecular target: hJAK2 (Homo sapiens (Human), UniProt O60674); experiment: hJAK2 LANCE TR-FRET enzymatic assay; format: biochemical; conditions: read-out: JAK2 IC50
hJAK2, sequence (O60674 whole entry): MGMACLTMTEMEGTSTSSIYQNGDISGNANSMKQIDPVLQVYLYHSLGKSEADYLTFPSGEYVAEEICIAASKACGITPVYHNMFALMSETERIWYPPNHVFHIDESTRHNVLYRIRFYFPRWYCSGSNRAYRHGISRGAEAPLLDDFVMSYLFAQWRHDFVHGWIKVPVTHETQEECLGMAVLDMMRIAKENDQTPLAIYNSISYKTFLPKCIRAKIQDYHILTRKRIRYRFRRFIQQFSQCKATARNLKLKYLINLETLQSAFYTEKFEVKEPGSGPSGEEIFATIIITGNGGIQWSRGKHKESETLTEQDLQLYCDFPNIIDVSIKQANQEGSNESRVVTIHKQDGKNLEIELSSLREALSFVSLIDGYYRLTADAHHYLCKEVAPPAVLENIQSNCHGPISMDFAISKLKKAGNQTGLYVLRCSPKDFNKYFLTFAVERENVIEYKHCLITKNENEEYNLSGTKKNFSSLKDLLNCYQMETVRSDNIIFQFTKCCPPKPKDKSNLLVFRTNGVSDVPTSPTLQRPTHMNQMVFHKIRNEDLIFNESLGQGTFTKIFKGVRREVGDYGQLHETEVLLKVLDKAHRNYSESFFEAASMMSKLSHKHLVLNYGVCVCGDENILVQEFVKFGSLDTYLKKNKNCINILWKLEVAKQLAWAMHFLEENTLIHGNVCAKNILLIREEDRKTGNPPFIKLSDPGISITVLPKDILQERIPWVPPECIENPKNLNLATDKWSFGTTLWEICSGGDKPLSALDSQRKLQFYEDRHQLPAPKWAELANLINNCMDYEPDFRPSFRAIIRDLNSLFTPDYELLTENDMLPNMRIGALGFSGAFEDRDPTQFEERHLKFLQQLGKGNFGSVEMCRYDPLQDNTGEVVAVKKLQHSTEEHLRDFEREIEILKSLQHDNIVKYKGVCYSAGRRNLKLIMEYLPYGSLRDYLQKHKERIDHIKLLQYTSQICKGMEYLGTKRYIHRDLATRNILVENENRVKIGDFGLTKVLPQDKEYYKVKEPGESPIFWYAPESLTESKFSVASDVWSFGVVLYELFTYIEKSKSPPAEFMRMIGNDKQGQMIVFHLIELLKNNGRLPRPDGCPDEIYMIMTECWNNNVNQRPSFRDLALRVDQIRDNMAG

[3] = molecular target: TBK1 (Homo sapiens (Human), UniProt Q9UHD2); experiment: TBK1 TR-FRET enzymatic assay;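 also: phosphorylation of a biotinylated Ser/Thr peptide by purified full-length recombinant TBK1, read by TR-FRET after 240 min at 25 °C, IC50 is the geometric mean of at least four runs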
TBK1, sequence (Q9UHD2 whole entry): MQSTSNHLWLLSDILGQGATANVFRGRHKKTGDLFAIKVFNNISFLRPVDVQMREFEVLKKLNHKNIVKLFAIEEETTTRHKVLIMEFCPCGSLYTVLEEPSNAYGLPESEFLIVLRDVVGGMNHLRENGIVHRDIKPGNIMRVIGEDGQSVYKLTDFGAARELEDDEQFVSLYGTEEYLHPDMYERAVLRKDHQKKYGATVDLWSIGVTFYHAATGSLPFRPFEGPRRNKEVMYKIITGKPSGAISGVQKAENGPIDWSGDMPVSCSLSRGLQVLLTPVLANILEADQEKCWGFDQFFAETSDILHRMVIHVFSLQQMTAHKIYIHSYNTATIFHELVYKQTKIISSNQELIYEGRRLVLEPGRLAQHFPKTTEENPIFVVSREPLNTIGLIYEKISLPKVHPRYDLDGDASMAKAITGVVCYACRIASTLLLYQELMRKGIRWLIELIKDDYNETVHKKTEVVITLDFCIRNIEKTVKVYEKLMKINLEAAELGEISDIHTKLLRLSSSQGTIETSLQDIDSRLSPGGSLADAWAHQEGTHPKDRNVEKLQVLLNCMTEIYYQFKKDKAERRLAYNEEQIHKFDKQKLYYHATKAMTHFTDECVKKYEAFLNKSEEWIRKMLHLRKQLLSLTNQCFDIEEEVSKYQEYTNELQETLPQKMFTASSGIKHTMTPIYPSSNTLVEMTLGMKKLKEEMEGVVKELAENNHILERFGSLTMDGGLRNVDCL

IKKε, sequence (Q14164 whole entry): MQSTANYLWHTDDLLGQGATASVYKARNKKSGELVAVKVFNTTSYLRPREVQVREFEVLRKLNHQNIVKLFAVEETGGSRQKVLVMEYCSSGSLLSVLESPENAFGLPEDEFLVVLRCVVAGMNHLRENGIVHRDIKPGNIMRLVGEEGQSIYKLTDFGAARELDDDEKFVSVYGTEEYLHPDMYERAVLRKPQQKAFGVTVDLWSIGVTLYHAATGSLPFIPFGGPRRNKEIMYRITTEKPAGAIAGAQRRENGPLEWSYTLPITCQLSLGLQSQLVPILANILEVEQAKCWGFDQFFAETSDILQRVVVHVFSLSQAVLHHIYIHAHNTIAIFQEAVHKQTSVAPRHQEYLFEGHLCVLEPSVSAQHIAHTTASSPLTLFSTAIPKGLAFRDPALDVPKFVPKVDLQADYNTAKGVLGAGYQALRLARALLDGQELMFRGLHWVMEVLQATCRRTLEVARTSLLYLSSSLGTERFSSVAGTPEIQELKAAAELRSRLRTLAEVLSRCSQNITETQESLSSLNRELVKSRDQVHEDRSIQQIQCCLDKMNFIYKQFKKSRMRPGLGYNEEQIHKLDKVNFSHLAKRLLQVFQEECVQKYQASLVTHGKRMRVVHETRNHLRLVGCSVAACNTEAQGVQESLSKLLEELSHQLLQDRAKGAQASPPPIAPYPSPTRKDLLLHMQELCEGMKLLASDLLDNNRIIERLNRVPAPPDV

| Compound | IC50 [1] [nM] | IC50 [2] [nM] | IC50 [3] [nM] |
| --- | --- | --- | --- |
| COCC(O)C(=O)N1CC[C@H](Oc2ccc(-c3ncnc(Nc4ccc(N5CCN(C6COC6)CC5)cc4)n3)cc2C#N)[C@H](F)C1 (stereo partly drawn) [Example 557, 2-(((3R,4S)-3-fluoro-1-(2-hydroxy-3-methoxypropanoyl)piperidin-4-yl)oxy)-5-(4-((4-(4-(oxetan-3-yl)piperazin-1-yl)phenyl)amino)-1,3,5-triazin-2-yl)benzonitrile] | 4 | 917 | 6 |
| N#Cc1cc(-c2ncnc(Nc3ccc(N4CCN(C5COC5)CC4)cc3)n2)ccc1O[C@H]1CCN(C(=O)c2cnc(N)[nH]2)C[C@H]1F [Example 559, 2-(((3R,4S)-1-(2-amino-1H-imidazole-5-carbonyl)-3-fluoropiperidin-4-yl)oxy)-5-(4-((4-(4-(oxetan-3-yl)piperazin-1-yl)phenyl)amino)-1,3,5-triazin-2-yl)benzonitrile] | 2 | 83 | 5 |
| COc1cc(Nc2ncnc(-c3ccc(O[C@H]4CCN(C(=O)CO)CC4(F)F)c(C#N)c3)n2)ccc1N1CCN(C2COC2)CC1 [Example 560, (S)-2-((3,3-difluoro-1-(2-hydroxyacetyl)piperidin-4-yl)oxy)-5-(4-((3-methoxy-4-(4-(oxetan-3-yl)piperazin-1-yl)phenyl)amino)-1,3,5-triazin-2-yl)benzonitrile] | 1 | 18 | 2 |
| COc1cc(Nc2ncnc(-c3ccc(O[C@H]4CCN(C(=O)[C@H](C)O)CC4(F)F)c(C#N)c3)n2)ccc1N1CCN(C2COC2)CC1 [Example 561, 2-(((S)-3,3-difluoro-1-((S)-2-hydroxypropanoyl)piperidin-4-yl)oxy)-5-(4-((3-methoxy-4-(4-(oxetan-3-yl)piperazin-1-yl)phenyl)amino)-1,3,5-triazin-2-yl)benzonitrile] | 1 | 68 | 2 |
| COc1cc(Nc2ncnc(-c3ccc(O[C@H]4CCN(C(=O)CCO)C[C@H]4F)c(C#N)c3)n2)ccc1N1CCN(C2COC2)CC1 [Example 562, 2-(((3R,4S)-3-fluoro-1-(3-hydroxypropanoyl)piperidin-4-yl)oxy)-5-(4-((3-methoxy-4-(4-(oxetan-3-yl)piperazin-1-yl)phenyl)amino)-1,3,5-triazin-2-yl)benzonitrile] | 6 | 110 | 3 |
| Cc1ncsc1Nc1ncnc(-c2ccc(O[C@H]3CCN(C(=O)CO)C[C@H]3F)c(C#N)c2)n1 [Example 563, 2-(((3R,4S)-3-fluoro-1-(2-hydroxyacetyl)piperidin-4-yl)oxy)-5-(4-((4-methylthiazol-5-yl)amino)-1,3,5-triazin-2-yl)benzonitrile] | 3 | ≥ 1000 | 5 |
| C[C@H](O)C(=O)N1CC[C@H](Oc2ccc(-c3ncnc(Nc4cn(C)nc4CO)n3)cc2C#N)[C@H](F)C1 [Example 564, 2-(((3R,4S)-3-fluoro-1-((S)-2-hydroxyproanoyl)piperidin-4-yl)oxy)-5-(4-((3-(hydroxymethyl)-1-methyl-1H-pyrazol-4-yl)amino)-1,3,5-triazin-2-yl)benzonitrile] | 109 | ≥ 1000 | 92 |
| C[C@H](O)C(=O)N1CC[C@H](Oc2ccc(-c3ncnc(Nc4cnn(C)c4CO)n3)cc2C#N)[C@H](F)C1 [Example 565, 2-(((3R,4S)-3-fluoro-1-((S)-2-hydroxypropanoyl)piperidin-4-yl)oxy)-5-(4-((5-(hydroxymethyl)-1-methyl-1H-pyrazol-4-yl)amino)-1,3,5-triazin-2-yl)benzonitrile] | 126 | ≥ 1000 | 90 |
| Cc1c(Nc2ncnc(-c3ccc(O[C@H]4CCN(C(=O)[C@H](C)O)C[C@H]4F)c(C#N)c3)n2)cnn1C [Example 566, 5-(4-((1,5-dimethyl-1H-pyrazol-4-yl)amino)-1,3,5-triazin-2-yl)-2-(((3R,4S)-3-fluoro-1-((S)-2-hydroxypropanoyl)piperidin-4-yl)oxy)benzonitrile] | 33 | ≥ 1000 | 14 |
| Cc1c(Nc2ncnc(-c3ccc(O[C@H]4CCN(C(=O)[C@@H](O)CO)C[C@H]4F)c(C#N)c3)n2)cnn1C [Example 567, 2-(((3R,4S)-1-((S)-2,3-dihydroxypropanoyl)-3-fluoropiperidin-4-yl)oxy)-5-(4-((1,5-dimethyl-1H-pyrazol-4-yl)amino)-1,3,5-triazin-2-yl)benzonitrile] | 7 | ≥ 1000 | 3 |
| CCn1cc(Nc2ncnc(-c3ccc(O[C@H]4CCN(C(=O)[C@H](C)O)C[C@H]4F)c(C#N)c3)n2)c(C)n1 [Example 568, 5-(4-((1-ethyl-3-methyl-1H-pyrazol-4-yl)amino)-1,3,5-triazin-2-yl)-2-(((3R,4S)-3-fluoro-1-((S)-2-hydroxypropanoyl)piperidin-4-yl)oxy)benzonitrile] | 21 | ≥ 1000 | 9 |
| CCn1cc(Nc2ncnc(-c3ccc(O[C@H]4CCN(C(=O)CO)C[C@H]4F)c(C#N)c3)n2)c(C)n1 [Example 569, 5-(4-((1-ethyl-3-methyl-1H-pyrazol-4-yl)amino)-1,3,5-triazin-2-yl)-2-(((3R,4S)-3-fluoro-1-(2-hydroxyacetyl)piperidin-4-yl)oxy)benzonitrile] | 6 | ≥ 1000 | 4 |
| Cc1ncc(Nc2ncnc(-c3ccc(O[C@H]4CCN(C(=O)[C@H](C)O)C[C@H]4F)c(C#N)c3)n2)s1 [Example 570, 2-(((3R,4S)-3-fluoro-1-((S)-2-hydroxypropanoyl)piperidin-4-yl)oxy)-5-(4-((2-methylthiazol-5-yl)amino)-1,3,5-triazin-2-yl)benzonitrile] | 4 | ≥ 1000 | 3 |
| Cc1nc(C)c(Nc2ncnc(-c3ccc(O[C@H]4CCN(C(=O)[C@H](C)O)C[C@H]4F)c(C#N)c3)n2)s1 [Example 571, 5-(4-((2,4-dimethylthiazol-5-yl)amino)-1,3,5-triazin-2-yl)-2-(((3R,4S)-3-fluoro-1-((S)-2-hydroxypropanoyl)piperidin-4-yl)oxy)benzonitrile] | 11 | ≥ 1000 | 6 |
| C[C@H](O)C(=O)N1CC[C@H](Oc2ccc(-c3ncnc(Nc4scnc4CO)n3)cc2C#N)[C@H](F)C1 [Example 572, 2-(((3R,4S)-3-fluoro-1-((S)-2-hydroxypropanoyl)piperidin-4-yl)oxy)-5-(4-((4-(hydroxymethyl)thiazol-5-yl)amino)-1,3,5-triazin-2-yl)benzonitrile] | 21 | ≥ 1000 | 36 |
| C[C@H](O)CN1CCN(c2ccc(Nc3ncnc(-c4ccc(O[C@H]5CCN(C(=O)[C@H](C)O)C[C@H]5F)c(C#N)c4)n3)cc2)CC1 [Example 573, 2-(((3R,4S)-3-fluoro-1-((S)-2-hydroxypropanoyl)piperidin-4-yl)oxy)-5-(4-((4-(4-((S)-2-hydroxypropyl)piperazin-1-yl)phenyl)amino)-1,3,5-triazin-2-yl)benzonitrile] | 1 | 969 | 3 |
| CC(C)n1cc(Nc2ncnc(-c3ccc(O[C@H]4CCN(C(=O)[C@@H](O)CO)C[C@H]4F)c(C#N)c3)n2)cn1 [Example 574, 2-(((3R,4S)-1-((S)-2,3-dihydroxypropanoyl)-3-fluoropiperidin-4-yl)oxy)-5-(4-((1-isopropyl-1H-pyrazol-4-yl)amino)-1,3,5-triazin-2-yl)benzonitrile] | 2 | 354 | 2 |
